From patent US20260028336A1 (Arcus Biosciences, Inc., priority 2022, published 2026)

Tests used:
Cbl-b = target: T1, Cbl-b (Homo sapiens, UniProt Q13191); test: Cbl-b probe displacement HTRF binding assay; details: 0.4 nM biotinylated Cbl-b, 150 nM BODIPY probe
T1 construct: biotin (biotinylated)
In short: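 Biotinylated Cbl-b was preincubated with compound for 60 min at room temperature in HEPES/NaCl/Triton/TCEP/BSA buffer. BODIPY probe was added for 15 min, followed by streptavidin-terbium, and the HTRF signal was read. Displacement was normalised to DMSO and no-protein controls, and affinity was obtained from a four-parameter dose-response fit.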

Jurkat cells = test: IL-2 secretion assay in CD3/CD28-activated Jurkat cells (AlphaLISA); assay type: cell-based; details: Homo sapiens, CD3/CD28 T Cell Activator, 24 h, IL-2 AlphaLISA
Experimental: Certain compounds were also evaluated in an IL-2 secretion assay. On the day of the assay, a 16 point, 1:2 master serial dilution of each compound was prepared in Opti-MEM to span a final concentration range of 10 μM to 300 pM. Assays were set up in CORNING® tissue culture-treated 384-well microplates containing 60 nL of each dilution. […] 50,000 cells/well and added to the compound plates. After a short spin (1200 rpm for 1 min), the plates were incubated at 37° C. for 1 hour. The cells were activated by adding 15 μL of IMMUNOCULT™ Human CD3/CD28 T Cell Activator ([…] Technologies) diluted in Opti-MEM. […] The AiphaLISA signal was measured using an EnVision plate reader (PerkinElmer). EC50 values were determined by fitting the data to a standard 4-parameter logistic equation.

T1 sequence (Q13191 whole entry, species assumed): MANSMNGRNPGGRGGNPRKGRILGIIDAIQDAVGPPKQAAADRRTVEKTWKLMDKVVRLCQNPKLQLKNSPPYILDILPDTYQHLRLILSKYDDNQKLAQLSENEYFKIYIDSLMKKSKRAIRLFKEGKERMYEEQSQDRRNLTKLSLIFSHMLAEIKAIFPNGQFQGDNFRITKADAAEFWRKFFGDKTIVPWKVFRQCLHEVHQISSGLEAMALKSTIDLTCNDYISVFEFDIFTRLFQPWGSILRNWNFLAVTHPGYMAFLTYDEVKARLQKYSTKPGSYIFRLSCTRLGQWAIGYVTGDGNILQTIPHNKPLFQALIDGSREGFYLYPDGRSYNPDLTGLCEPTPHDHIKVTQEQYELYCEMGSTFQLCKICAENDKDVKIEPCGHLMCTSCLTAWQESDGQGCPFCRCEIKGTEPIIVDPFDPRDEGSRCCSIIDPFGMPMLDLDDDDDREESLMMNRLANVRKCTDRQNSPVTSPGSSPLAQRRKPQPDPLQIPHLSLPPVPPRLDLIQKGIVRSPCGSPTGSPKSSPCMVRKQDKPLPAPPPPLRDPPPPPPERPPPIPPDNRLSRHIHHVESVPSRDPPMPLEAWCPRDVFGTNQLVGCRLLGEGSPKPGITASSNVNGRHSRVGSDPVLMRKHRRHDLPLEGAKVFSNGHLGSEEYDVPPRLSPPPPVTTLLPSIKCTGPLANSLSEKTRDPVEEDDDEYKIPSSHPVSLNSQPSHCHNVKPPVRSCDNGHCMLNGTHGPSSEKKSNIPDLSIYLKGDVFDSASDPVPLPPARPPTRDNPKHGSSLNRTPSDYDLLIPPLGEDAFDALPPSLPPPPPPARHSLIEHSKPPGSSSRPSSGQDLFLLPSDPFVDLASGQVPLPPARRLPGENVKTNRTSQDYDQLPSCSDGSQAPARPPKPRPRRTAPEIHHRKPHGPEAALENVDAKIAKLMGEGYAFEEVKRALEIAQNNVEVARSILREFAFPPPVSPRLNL

Row | SMILES | IC50 (Cbl-b) | EC50 (Jurkat cells)
1 | CC1CC(c2cccc(-n3cc(C4CC4)c4cc(CN5CC6CCC5C6)[nH]c4c3=O)c2)(c2nncn2C)C1 (stereo not shown) [Example 52, 2-({2-azabicyclo[2.2.1]heptan-2-yl}methyl)-4-cyclopropyl-6-{3-[3-methyl-1-(4-methyl-4H-1,2,4-triazol-3-yl)cyclobutyl]phenyl}-1H,6H,7H-pyrrolo[2,3-c]pyridin-7-one] | < 0.1 µM | < 0.1 µM
2 | CC1CC(c2cccc(-n3cc(C4CC4)c4cc(CN(C)C5CC5)[nH]c4c3=O)c2)(c2nncn2C)C1 (stereo not shown) [Example 54, 4-cyclopropyl-2-{I[cyclopropyl(methyl)amino]methyl}-6-{3-[3-methyl-1-(4-methyl-4H-1,2,4-triazol-3-yl)cyclobutyl]phenyl}-1H,6H,7H-pyrrolo[2,3-c]pyridin-7-one] | < 0.1 µM | 0.1 to 1 µM
3 | CC1CC(c2cccc(-n3cc(C4CC4)c4cc(CN(C)C)[nH]c4c3=O)c2)(c2nncn2C)C1 (stereo not shown) [Example 55, 4-cyclopropyl-2-[(dimethylamino)methyl]-6-{3-[3-methyl-1-(4-methyl-4H-1,2,4-triazol-3-yl)cyclobutyl]phenyl}-1H,6H,7H-pyrrolo[2,3-c]pyridin-7-one] | < 0.1 µM | < 0.1 µM
4 | CC1CC(c2cccc(-n3cc(C4CC4)c4cc(CN[C@H]5CCOC5)[nH]c4c3=O)c2)(c2nncn2C)C1 (stereo partly drawn) [Example 56, 4-cyclopropyl-2-({[(3S)-oxolan-3-yl]amino}methyl)-6-{3-[(1r,3s)-3-methyl-1-(4-methyl-4H-1,2,4-triazol-3-yl)cyclobutyl]phenyl}-1H,6H,7H-pyrrolo[2,3-c]pyridin-7-one] | < 0.1 µM | 0.1 to 1 µM
5 | CC1CC(c2cccc(-n3cc(C4CC4)c4cc(CN5CCC(F)(F)[C@H](C)C5)[nH]c4c3=O)c2)(c2nncn2C)C1 (stereo partly drawn) [Example 57, 4-cyclopropyl-2-{[(3R)-4,4-difluoro-3-methylpiperidin-1-yl]methyl}-6-{3-[3-methyl-1-(4-methyl-4H-1,2,4-triazol-3-yl)cyclobutyl]phenyl}-1H,6H,7H-pyrrolo[2,3-c]pyridin-7-one] | < 0.1 µM | 0.1 to 1 µM
6 | CC1CC(c2cccc(-n3cc(C4CC4)c4cc(CN5CC(F)(F)C5)[nH]c4c3=O)c2)(c2nncn2C)C1 (stereo not shown) [Example 58, 4-cyclopropyl-2-[(3,3-difluoroazetidin-1-yl)methyl]-6-{3-[3-methyl-1-(4-methyl-4H-1,2,4-triazol-3-yl)cyclobutyl]phenyl}-1H,6H,7H-pyrrolo[2,3-c]pyridin-7-one] | < 0.1 µM | 0.1 to 1 µM
7 | CC1CC(c2cccc(-n3cc(C4CC4)c4cc(CN5[C@@H]6COC[C@H]5C6)[nH]c4c3=O)c2)(c2nncn2C)C1 (stereo partly drawn) [Example 60, 4-cyclopropyl-6-{3-[3-methyl-1-(4-methyl-4H-1,2,4-triazol-3-yl)cyclobutyl]phenyl}-2-{[(1R,5S)-3-oxa-6-azabicyclo[3.1.1]heptan-6-yl]methyl}-1H,6H,7H-pyrrolo[2,3-c]pyridin-7-one] | < 0.1 µM | 1 to 5 µM

More lines, now with the values ahead:

Row | IC50 (Cbl-b) | EC50 (Jurkat cells) | SMILES
8 | < 0.1 µM | > 5 µM | CC1CC(c2cccc(-n3cc(C4CC4)c4cc(CN5C[C@@H]6C[C@H]5CN6)[nH]c4c3=O)c2)(c2nncn2C)C1 (stereo partly drawn) [Example 59, 4-cyclopropyl-2-{[(1S,4S)-2,5-diazabicyclo[2.2.1]heptan-2-yl]methyl}-6-{3-[3-methyl-1-(4-methyl-4H-1,2,4-triazol-3-yl)cyclobutyl]phenyl}-1H,6H,7H-pyrrolo[2,3-c]pyridin-7-one]
9 | 0.1 to 1 µM | 1 to 5 µM | CC1CC(c2cccc(-n3cc(C4CC4)c4cc(CN5CCN(C)[C@H](C)C5)[nH]c4c3=O)c2)(c2nncn2C)C1 (stereo partly drawn) [Example 61, 4-cyclopropyl-2-{[(3R)-3,4-dimethylpiperazin-1-yl]methyl}-6-{3-[3-methyl-1-(4-methyl-4H-1,2,4-triazol-3-yl)cyclobutyl]phenyl}-1H,6H,7H-pyrrolo[2,3-c]pyridin-7-one]
10 | 0.1 to 1 µM | > 5 µM | CC1CC(c2cccc(-n3cc(C4CC4)c4cc(CN5C[C@@H]6C[C@H]5CN6C)[nH]c4c3=O)c2)(c2nncn2C)C1 (stereo partly shown) [Example 62]
11 | < 0.1 µM | < 0.1 µM | CC1CC(c2cccc(-n3cc(C4CC4)c4cc(CN5CCC6(CC6)C5)[nH]c4c3=O)c2)(c2nncn2C)C1 (stereo not shown) [Example 63, 2-({5-azaspiro[2.4]heptan-5-yl}methyl)-4-cyclopropyl-6-{3-[(1r,3s)-3-methyl-1-(4-methyl-4H-1,2,4-triazol-3-yl)cyclobutyl]phenyl}-1H,6H,7H-pyrrolo[2,3-c]pyridin-7-one]
12 | < 0.1 µM | 0.1 to 1 µM | CC1CC(c2cccc(-n3cc(C4CC4)c4cc(CN5CCC[C@H](F)C5)[nH]c4c3=O)c2)(c2nncn2C)C1 (stereo partly drawn) [Example 64, 4-cyclopropyl-2-{[(3S)-3-fluoropiperidin-1-yl]methyl}-6-{3-[(1r,3s)-3-methyl-1-(4-methyl-4H-1,2,4-triazol-3-yl)cyclobutyl]phenyl}-1H,6H,7H-pyrrolo[2,3-c]pyridin-7-one]
13 | < 0.1 µM | 1 to 5 µM | CC1CC(c2cccc(-n3cc(C4CC4)c4cc(CN5C[C@@H](F)C[C@H](F)C5)[nH]c4c3=O)c2)(c2nncn2C)C1 (stereo partly drawn) [Example 65, 4-cyclopropyl-2-{[(3S,5S)-3,5-difluoropiperidin-1-yl]methyl}-6-{3-[(1r,3s)-3-methyl-1-(4-methyl-4H-1,2,4-triazol-3-yl)cyclobutyl]phenyl}-1H,6H,7H-pyrrolo[2,3-c]pyridin-7-one]
14 | 0.1 to 1 µM | 1 to 5 µM | CC1CC(c2cccc(-n3cc(C4CC4)c4cc(CN5CCCC(F)(F)C5)[nH]c4c3=O)c2)(c2nncn2C)C1 (stereo not shown) [Example 66, 4-cyclopropyl-2-[(3,3-difluoropiperidin-1-yl)methyl]-6-{3-[(1r)-3-methyl-1-(4-methyl-4H-1,2,4-triazol-3-yl)cyclobutyl]phenyl}-1H,6H,7H-pyrrolo[2,3-c]pyridin-7-one]
15 | 0.1 to 1 µM | 1 to 5 µM | CC1CC(c2cccc(-n3cc(C4CC4)c4cc(CN5C[C@H](F)C[C@H](F)C5)[nH]c4c3=O)c2)(c2nncn2C)C1 (stereo partly drawn) [Example 67, 4-cyclopropyl-2-{[(3R,5S)-3,5-difluoropiperidin-1-yl]methyl}-6-{3-[(1r)-3-methyl-1-(4-methyl-4H-1,2,4-triazol-3-yl)cyclobutyl]phenyl}-1H,6H,7H-pyrrolo[2,3-c]pyridin-7-one]
16 | < 0.1 µM | 0.1 to 1 µM | CC1CC(c2cccc(-n3cc(C4CC4)c4cc(CN5CCN(C)C[C@@H]5C(C)C)[nH]c4c3=O)c2)(c2nncn2C)C1 (stereo partly drawn) [Example 68, 4-cyclopropyl-2-{[(2S)-4-methyl-2-(propan-2-yl)piperazin-1-yl]methyl}-6-{3-[(1r,3s)-3-methyl-1-(4-methyl-4H-1,2,4-triazol-3-yl)cyclobutyl]phenyl}-1H,6H,7H-pyrrolo[2,3-c]pyridin-7-one]
17 | 0.1 to 1 µM | 1 to 5 µM | CC1CC(c2cccc(-n3cc(C4CC4)c4cc(CN(C)S(C)(=O)=O)[nH]c4c3=O)c2)(c2nncn2C)C1 (stereo not shown) [Example 69, N-[(4-cyclopropyl-7-oxo-6-{3-[(1r,3s)-3-methyl-1-(4-methyl-4H-1,2,4-triazol-3-yl)cyclobutyl]phenyl}-1H,6H,7H-pyrrolo[2,3-c]pyridin-2-yl)methyl]-N-methylmethanesulfonamide]
